Toxic doses and inconclusive results are not listed. Rule as the data show it: active = T/C of 150% or more; inactive = T/C below 125%.
System: L1210 leukemia ip in BDF1 mice, survival T/C
Assay: NCI In Vivo Anticancer Drug Screen. Data for tumor model L1210 Leukemia (intraperitoneal) in B6D2F1 (BDF1) mice
Conditions: endpoint: mean survival time, higher = longer survival
In short: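 Transplanted-tumor mice were given test agent; controls received vehicle only. Survival readings from the two groups were divided (treated over control).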

[1] = dose: 100.0 mg/kg/injection, schedule: Q01DX009 (ip), vehicle: Klucel (hydroxypropylcellulose) (HPC)
[2] = dose: 100.0 mg/kg/injection, schedule: Q04DX003 (ip), vehicle: Klucel (hydroxypropylcellulose) (HPC)
[3] = dose: 200.0 mg/kg/injection, schedule: Q01DX009 (ip), vehicle: Klucel (hydroxypropylcellulose) (HPC)
[4] = dose: 200.0 mg/kg/injection, schedule: Q04DX003 (ip), vehicle: Klucel (hydroxypropylcellulose) (HPC)
[5] = dose: 400.0 mg/kg/injection, schedule: Q04DX003 (ip), vehicle: Klucel (hydroxypropylcellulose) (HPC)
[6] = dose: 50.0 mg/kg/injection, schedule: Q01DX009 (ip), vehicle: Klucel (hydroxypropylcellulose) (HPC)
[7] = dose: 100.0 mg/kg/injection, schedule: Q04DX003 (ip), vehicle: saline with Tween-80
[8] = dose: 200.0 mg/kg/injection, schedule: Q04DX003 (ip), vehicle: saline with Tween-80
[9] = dose: 400.0 mg/kg/injection, schedule: Q04DX003 (ip), vehicle: saline with Tween-80
[10] = dose: 400.0 mg/kg/injection, schedule: Q01DX009 (ip), vehicle: Klucel (hydroxypropylcellulose) (HPC)
[11] = dose: 100.0 mg/kg/injection, schedule: Q04DX002 (ip), vehicle: saline with Tween-80
[12] = dose: 200.0 mg/kg/injection, schedule: Q04DX002 (ip), vehicle: saline with Tween-80
[13] = dose: 400.0 mg/kg/injection, schedule: Q04DX002 (ip), vehicle: saline with Tween-80
[14] = dose: 100.0 mg/kg/injection, schedule: Q01DX001 (ip), vehicle: saline
[15] = dose: 200.0 mg/kg/injection, schedule: Q01DX001 (ip), vehicle: saline
[16] = dose: 400.0 mg/kg/injection, schedule: Q01DX001 (ip), vehicle: saline

Measured: T/C

CN(C)c1ccc(C(C#N)(c2ccc(N(C)C)cc2)c2ccc(N(C)C)cc2)cc1
inactive: [1] 95 % of control | [2] 103 % of control | [3] 97 % of control | [4] 106 % of control | [5] 90 % of control

Nc1ccccc1-c1ccccc1
inactive: dose: 75.0 mg/kg/injection, schedule: Q01DX001 (ip), vehicle: saline 112 % of control

O=c1cc(-c2ccccc2)oc(-c2ccc(Cl)cc2)c1
inactive: dose: 25.0 mg/kg/injection, schedule: Q01DX009 (ip), vehicle: Klucel (hydroxypropylcellulose) (HPC) 98 % of control | [6] 98 % of control | [1] 100 % of control | [2] 97 % of control | [4] 90 % of control | [5] 100 % of control

O=C(O)CC12CCCCC1CCCC2 (stereo not given)
inactive: dose: 100.0 mg/kg/injection, schedule: Q01DX009 (ip), vehicle: acetone 94 % of control | dose: 200.0 mg/kg/injection, schedule: Q01DX009 (ip), vehicle: acetone 100 % of control | dose: 400.0 mg/kg/injection, schedule: Q01DX009 (ip), vehicle: acetone 94 % of control

CC(SCc1cc(=O)[nH]c(=O)[nH]1)C(=O)O (stereo not given)
inactive: dose: 100.0 mg/kg/injection, schedule: Q04DX003 (ip), vehicle: saline 98 % of control | dose: 200.0 mg/kg/injection, schedule: Q04DX003 (ip), vehicle: saline 98 % of control | dose: 400.0 mg/kg/injection, schedule: Q04DX003 (ip), vehicle: saline 96 % of control

COC(=O)CNC(=O)C(C)NC(=O)OCc1ccccc1 (stereo not given)
inactive: [7] 102 % of control | [8] 98 % of control | [9] 100 % of control

O=C(Nc1ccccc1Cl)OCCOc1ccccc1
inactive: [1] 97 % of control | [3] 97 % of control | [10] 94 % of control

Oc1ccc(Cl)cc1C=Nc1ccc2c(c1)OCO2
inactive: [11] 91 % of control | [12] 88 % of control | [13] 91 % of control

O=C(Nc1ccc(C(=O)O)cc1)Nc1cc([N+](=O)[O-])ccc1F
inactive: [2] 92 % of control | [4] 94 % of control | [5] 94 % of control

COC(=O)c1cc(NC(=O)Nc2ccc(Cl)cc2[N+](=O)[O-])cc(C(=O)OC)c1
inactive: [1] 92 % of control | [3] 101 % of control | [10] 93 % of control

O=C(O)C1=C(C(=O)Nc2cccc3cccnc23)C2C=CC1O2 (stereo not given)
inactive: [14] 96 % of control | [15] 97 % of control | [16] 95 % of control

COC(=O)N(C1CCCCC1)C1CCCCC1
inactive: [1] 97 % of control | [3] 96 % of control | [10] 100 % of control

NCCSCCN
inactive: [1] 104 % of control | [3] 100 % of control

O=COC1CC2CC1C1CCCC21 (stereo not given)
inactive: [7] 94 % of control | [8] 92 % of control

Clc1cc[c]([Sn]([O][Sn]([c]2ccc(Cl)cc2)([c]2ccc(Cl)cc2)[c]2ccc(Cl)cc2)([c]2ccc(Cl)cc2)[c]2ccc(Cl)cc2)cc1
inactive: dose: 25.0 mg/kg/injection, schedule: Q04DX002 (ip), vehicle: Klucel (hydroxypropylcellulose) (HPC) 107 % of control | dose: 50.0 mg/kg/injection, schedule: Q04DX002 (ip), vehicle: Klucel (hydroxypropylcellulose) (HPC) 91 % of control

O=C(NCc1ccccc1)C1C2C=CC(C2)C1C(=O)NCc1ccccc1 (stereo not given)
inactive: [7] 96 % of control | [8] 91 % of control | [9] 91 % of control

BrCC1CCCO1 (stereo not given)
inactive: dose: 25.0 mg/kg/injection, schedule: Q01DX009 (ip), vehicle: saline with Tween-80 106 % of control | dose: 25.0 mg/kg/injection, schedule: Q04DX003 (ip), vehicle: saline with Tween-80 102 % of control | dose: 50.0 mg/kg/injection, schedule: Q01DX009 (ip), vehicle: saline with Tween-80 90 % of control | dose: 50.0 mg/kg/injection, schedule: Q04DX003 (ip), vehicle: saline with Tween-80 101 % of control | dose: 100.0 mg/kg/injection, schedule: Q01DX009 (ip), vehicle: saline with Tween-80 89 % of control | [7] 101 % of control

Nc1ccc(S(=O)(=O)c2ccc(NCCc3ccccn3)cc2)cc1
inactive: [7] 97 % of control | [8] 105 % of control | [9] 100 % of control

Cc1cc(=O)[nH]c(N/N=C/C(C)C)n1
inactive: [6] 95 % of control | [1] 95 % of control | [2] 95 % of control | [3] 93 % of control | [4] 89 % of control

O=C(O)c1cccc2cccc(C3SCCS3)c12
inactive: [7] 101 % of control | [8] 104 % of control | [9] 90 % of control

C(=N\Nc1nnc(N/N=C/c2cccc3ccccc23)c2ccccc12)/c1cccc2ccccc12
inactive: dose: 50.0 mg/kg/injection, schedule: Q01DX001 (ip), vehicle: saline 92 % of control | [14] 92 % of control | [15] 92 % of control | [16] 92 % of control

CN1C2CCC1CN(Cc1ccccc1)C2
inactive: dose: 12.5 mg/kg/injection, schedule: Q01DX009 (ip), vehicle: saline 103 % of control | dose: 12.5 mg/kg/injection, schedule: Q04DX003 (ip), vehicle: saline 97 % of control | dose: 25.0 mg/kg/injection, schedule: Q01DX009 (ip), vehicle: saline 101 % of control | dose: 25.0 mg/kg/injection, schedule: Q04DX003 (ip), vehicle: saline 101 % of control | dose: 50.0 mg/kg/injection, schedule: Q01DX009 (ip), vehicle: saline 101 % of control | dose: 50.0 mg/kg/injection, schedule: Q04DX003 (ip), vehicle: saline 98 % of control

CCN(CCC#N)C(=S)Nc1ccc(C)c(C)c1
inactive: [11] 89 % of control | [12] 108 % of control | [13] 86 % of control

CN(CCO)CC(O)Cn1cnc2c1c(=O)n(C)c(=O)n2C (stereo not given) (tested in a mixture with another compound)
inactive: [14] 108 % of control | [15] 112 % of control | [16] 104 % of control

CC(C)c1ccc(/C=C2\C=Nc3ccccc32)cc1
inactive: dose: 100.0 mg/kg/injection, schedule: Q04DX002 (ip), vehicle: gum acacia 95 % of control | dose: 200.0 mg/kg/injection, schedule: Q04DX002 (ip), vehicle: gum acacia 92 % of control | dose: 400.0 mg/kg/injection, schedule: Q04DX002 (ip), vehicle: gum acacia 95 % of control

O=C(NC(=O)c1ccc([N+](=O)[O-])cc1)Nc1ccccc1
inactive: dose: 264.0 mg/kg/injection, schedule: Q01DX001 (ip), vehicle: carboxymethylcellulose (CMC) 92 % of control | dose: 400.0 mg/kg/injection, schedule: Q01DX001 (ip), vehicle: carboxymethylcellulose (CMC) 96 % of control | dose: 600.0 mg/kg/injection, schedule: Q01DX001 (ip), vehicle: carboxymethylcellulose (CMC) 88 % of control

Cc1cc(F)ccc1OCC(=O)Oc1ccc([N+](=O)[O-])cc1
inactive: dose: 100.0 mg/kg/injection, schedule: Q04DX002 (ip), vehicle: Klucel (hydroxypropylcellulose) (HPC) 108 % of control | dose: 200.0 mg/kg/injection, schedule: Q04DX002 (ip), vehicle: Klucel (hydroxypropylcellulose) (HPC) 101 % of control | dose: 400.0 mg/kg/injection, schedule: Q04DX002 (ip), vehicle: Klucel (hydroxypropylcellulose) (HPC) 111 % of control

From PubChem BioAssay AID248 (DTP/NCI, 2004)
